In the NIST ThermoML archive (doi:10.1021/acs.jced.5b00021):
Numbers after ± are expanded uncertainties.

Test: molar heat capacity at constant pressure
Conditions: 101.33 kPa, Crystal, Small sample (50 mg) DSC

Q: With `NC(N)=C([N+](=O)[O-])[N+](=O)[O-]` [1,1-diamino-2,2-dinitroethene] as the compound, how does the “molar heat capacity at constant pressure” value (283 K) read?
A: 169.55 ± 3.4 J/K/mol

Q: What about the “molar heat capacity at constant pressure” value (293 K) of the same compound?
A: 174.14 ± 3.6 J/K/mol

Q: What about the “molar heat capacity at constant pressure” value (298 K) of the same compound?
A: 176.51 ± 3.6 J/K/mol

Q: And the “molar heat capacity at constant pressure” value (303 K)?
A: 178.73 ± 3.6 J/K/mol

Q: What about the “molar heat capacity at constant pressure” value (313 K) of the same compound?
A: 183.32 ± 3.7 J/K/mol

Q: And the “molar heat capacity at constant pressure” value (323 K)?
A: 187.91 ± 3.7 J/K/mol

Q: And the “molar heat capacity at constant pressure” value (333 K)?
A: 192.5 ± 3.9 J/K/mol

Q: What about the “molar heat capacity at constant pressure” value (343 K) of the same compound?
A: 197.09 ± 4 J/K/mol

Q: What about the “molar heat capacity at constant pressure” value (353 K) of the same compound?
A: 201.68 ± 4 J/K/mol

Q: Which “molar heat capacity at constant pressure” value (283 K) does the source give for `O=[N+]([O-])C(=C1NCCCCN1)[N+](=O)[O-]` [2-(dinitromethylene)-1,3-diazacycloheptane] here?
A: 204.6 ± 4 J/K/mol

Q: And the “molar heat capacity at constant pressure” value (293 K)?
A: 211.67 ± 4.2 J/K/mol

Q: What about the “molar heat capacity at constant pressure” value (298 K) of the same compound?
A: 215.31 ± 4.2 J/K/mol

Q: And the “molar heat capacity at constant pressure” value (303 K)?
A: 218.75 ± 4.4 J/K/mol

Q: What about the “molar heat capacity at constant pressure” value (313 K) of the same compound?
A: 226.03 ± 4.4 J/K/mol

Q: And the “molar heat capacity at constant pressure” value (323 K)?
A: 233.1 ± 4.6 J/K/mol

Q: And the “molar heat capacity at constant pressure” value (333 K)?
A: 240.18 ± 4.9 J/K/mol

Q: And the “molar heat capacity at constant pressure” value (343 K)?
A: 247.25 ± 4.9 J/K/mol

Q: And the “molar heat capacity at constant pressure” value (353 K)?
A: 254.33 ± 5.1 J/K/mol

Q: With `O=[N+]([O-])C(=C1NCCCN1)[N+](=O)[O-]` [2-(dinitromethylene)-1,3-diazacyclohexane] as the compound, how does the “molar heat capacity at constant pressure” value (283 K) read?
A: 200.18 ± 4 J/K/mol

Q: What about the “molar heat capacity at constant pressure” value (293 K) of the same compound?
A: 205.26 ± 4.1 J/K/mol

Q: And the “molar heat capacity at constant pressure” value (298 K)?
A: 207.71 ± 4.1 J/K/mol

Q: What about the “molar heat capacity at constant pressure” value (303 K) of the same compound?
A: 210.16 ± 4.1 J/K/mol

Q: What about the “molar heat capacity at constant pressure” value (313 K) of the same compound?
A: 215.05 ± 4.3 J/K/mol

Q: And the “molar heat capacity at constant pressure” value (323 K)?
A: 220.13 ± 4.3 J/K/mol

Q: And the “molar heat capacity at constant pressure” value (333 K)?
A: 225.02 ± 4.5 J/K/mol

Q: What about the “molar heat capacity at constant pressure” value (343 K) of the same compound?
A: 230.1 ± 4.5 J/K/mol

Q: And the “molar heat capacity at constant pressure” value (353 K)?
A: 234.99 ± 4.7 J/K/mol

Q: With `O=[N+]([O-])C(=C1NCCN1)[N+](=O)[O-]` [2-(dinitromethylene)-1,3-diazacyclopentane] as the compound, how does the “molar heat capacity at constant pressure” value (283 K) read?
A: 197.45 ± 4 J/K/mol

Q: What about the “molar heat capacity at constant pressure” value (293 K) of the same compound?
A: 202.67 ± 4 J/K/mol

Q: What about the “molar heat capacity at constant pressure” value (298 K) of the same compound?
A: 205.28 ± 4.2 J/K/mol

Q: What about the “molar heat capacity at constant pressure” value (303 K) of the same compound?
A: 207.89 ± 4.2 J/K/mol

Q: What about the “molar heat capacity at constant pressure” value (313 K) of the same compound?
A: 213.29 ± 4.4 J/K/mol

Q: And the “molar heat capacity at constant pressure” value (323 K)?
A: 218.52 ± 4.4 J/K/mol

Q: What about the “molar heat capacity at constant pressure” value (333 K) of the same compound?
A: 223.74 ± 4.5 J/K/mol

Q: What about the “molar heat capacity at constant pressure” value (343 K) of the same compound?
A: 229.14 ± 4.5 J/K/mol

Q: And the “molar heat capacity at constant pressure” value (353 K)?
A: 234.36 ± 4.7 J/K/mol

Q: For `CC1CNC(=C([N+](=O)[O-])[N+](=O)[O-])N1` (stereo not given) [2-(dinitromethylene)-4-methylimidazolidine], which “molar heat capacity at constant pressure” value (283 K) is on record?
A: 209.78 ± 4.1 J/K/mol

Q: And the “molar heat capacity at constant pressure” value (293 K)?
A: 215.8 ± 4.3 J/K/mol

Q: What about the “molar heat capacity at constant pressure” value (298 K) of the same compound?
A: 218.81 ± 4.3 J/K/mol

Q: And the “molar heat capacity at constant pressure” value (303 K)?
A: 221.82 ± 4.5 J/K/mol

Q: And the “molar heat capacity at constant pressure” value (313 K)?
A: 227.84 ± 4.5 J/K/mol

Q: What about the “molar heat capacity at constant pressure” value (323 K) of the same compound?
A: 233.86 ± 4.7 J/K/mol

Q: And the “molar heat capacity at constant pressure” value (333 K)?
A: 239.88 ± 4.9 J/K/mol

Q: And the “molar heat capacity at constant pressure” value (343 K)?
A: 245.9 ± 4.9 J/K/mol

Q: And the “molar heat capacity at constant pressure” value (353 K)?
A: 251.92 ± 5.1 J/K/mol
